Data reported in article PMC6478789, “A chemical toolbox for the study of bromodomains and epigenetic signaling” (Nature Communications, 2019).
Read-outs that look alike come from different tables or passages of the source.

Experiments:
Experiment in all cases: BROMOscan ligand-binding assay
[1] = biological target: T1, ATAD2B (Homo sapiens, UniProt Q9ULI0)
T1 sequence (Q9ULI0 951-1066 limits assumed): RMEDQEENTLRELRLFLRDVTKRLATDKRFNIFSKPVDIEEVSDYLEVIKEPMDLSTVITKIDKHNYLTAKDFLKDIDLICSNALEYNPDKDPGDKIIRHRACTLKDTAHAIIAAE
Source text: (§1) BROMOscan is a binding assay based on the well-known KINOMEscan technology. This assay measures the binding of a DNA-tagged bromodomain to an immobilized BRD ligand. If an inhibitor is present, it will compete with the bromodomain binding to the immobilized ligand, resulting in reduction of a quantitative PCR (qPCR) signal in a dose-dependent manner.

[2] = biological target: T2, BAZ2A (Homo sapiens, UniProt Q9UIF9)
T2 sequence (Q9UIF9 1793-1897 limits assumed): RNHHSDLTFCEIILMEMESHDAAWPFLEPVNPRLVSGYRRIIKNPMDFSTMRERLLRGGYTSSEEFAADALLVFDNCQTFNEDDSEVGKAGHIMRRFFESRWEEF
Source text: as §1

[3] = biological target: BRD2(1) (Homo sapiens, UniProt P25440)
Source text: as §1

[4] = biological target: BRD2(1,2) (Homo sapiens, UniProt P25440)
Source text: as §1

[5] = biological target: BRD2(2) (Homo sapiens, UniProt P25440)
Source text: as §1

[6] = biological target: BRD3(1) (Homo sapiens, UniProt Q15059)
Source text: as §1

[7] = biological target: BRD3(1,2) (Homo sapiens, UniProt Q15059)
Source text: as §1

[8] = biological target: BRD4(1,2) (Homo sapiens, UniProt O60885)
Source text: as §1

[9] = biological target: BRD4(2) (Homo sapiens, UniProt O60885)
Source text: as §1

[10] = biological target: CECR2 (Homo sapiens, UniProt Q9BXF3)
Source text: as §1

[11] = biological target: T3, EP300 (Homo sapiens, UniProt Q09472)
T3 sequence (Q09472 1049-1156 limits assumed): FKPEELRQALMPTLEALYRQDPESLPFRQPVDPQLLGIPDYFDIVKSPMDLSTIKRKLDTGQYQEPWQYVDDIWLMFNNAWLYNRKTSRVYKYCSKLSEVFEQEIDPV
Source text: as §1

[12] = biological target: FALZ (Homo sapiens, UniProt Q12830)
Source text: as §1

[13] = biological target: T4, GCN5L2 (Homo sapiens, UniProt Q92830)
T4 sequence (Q92830 728-832 limits assumed): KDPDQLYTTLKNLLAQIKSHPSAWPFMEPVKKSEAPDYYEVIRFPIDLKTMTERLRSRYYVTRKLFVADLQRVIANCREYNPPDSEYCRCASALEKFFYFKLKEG
Source text: as §1

[14] = biological target: PBRM1(2) (Homo sapiens, UniProt Q86U86)
Source text: as §1

[15] = biological target: PBRM1(5) (Homo sapiens, UniProt Q86U86); details: PBRM1(5)
Source text: as §1

[16] = biological target: T5, PCAF (Homo sapiens, UniProt Q92831)
T5 sequence (Q92831 723-827 limits assumed): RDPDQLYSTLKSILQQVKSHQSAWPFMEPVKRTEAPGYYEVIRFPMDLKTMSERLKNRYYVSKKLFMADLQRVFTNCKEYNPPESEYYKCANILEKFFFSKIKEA
Source text: as §1

[17] = biological target: SMARCA2 (Homo sapiens, UniProt P51531)
Source text: as §1

[18] = biological target: T6, TAF1(2) (Homo sapiens, UniProt P21675)
T6 sequence (P21675 1519-1628 limits assumed): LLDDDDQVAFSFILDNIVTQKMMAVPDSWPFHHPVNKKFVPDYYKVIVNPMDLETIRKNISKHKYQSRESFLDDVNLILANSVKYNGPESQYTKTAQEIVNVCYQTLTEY
Source text: as §1

[19] = biological target: T7, TRIM33(PHD,BRD) (Homo sapiens, UniProt Q9UPN9)
T7 sequence (Q9UPN9 882-1087 limits assumed): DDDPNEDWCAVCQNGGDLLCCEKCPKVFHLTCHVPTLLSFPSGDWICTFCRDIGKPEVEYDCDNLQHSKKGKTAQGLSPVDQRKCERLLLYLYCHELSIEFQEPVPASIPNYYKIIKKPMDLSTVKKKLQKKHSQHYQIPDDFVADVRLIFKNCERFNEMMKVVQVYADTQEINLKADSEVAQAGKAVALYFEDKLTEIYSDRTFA
Source text: as §1

[20] = biological target: WDR9(2) (Homo sapiens, UniProt Q9NSI6)
Source text: as §1

[21] = read-out: KD (BROMOscan), sheet prints no unit (nM)
[22] = KD (BROMOscan), sheet prints no unit (nM)

CECR2, sequence (Q9BXF3 434-538 limits assumed): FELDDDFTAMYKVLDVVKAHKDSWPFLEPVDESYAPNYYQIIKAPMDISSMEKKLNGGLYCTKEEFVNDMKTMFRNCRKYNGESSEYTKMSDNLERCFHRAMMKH
BRD2(1,2), sequence (P25440 71-455 limits assumed): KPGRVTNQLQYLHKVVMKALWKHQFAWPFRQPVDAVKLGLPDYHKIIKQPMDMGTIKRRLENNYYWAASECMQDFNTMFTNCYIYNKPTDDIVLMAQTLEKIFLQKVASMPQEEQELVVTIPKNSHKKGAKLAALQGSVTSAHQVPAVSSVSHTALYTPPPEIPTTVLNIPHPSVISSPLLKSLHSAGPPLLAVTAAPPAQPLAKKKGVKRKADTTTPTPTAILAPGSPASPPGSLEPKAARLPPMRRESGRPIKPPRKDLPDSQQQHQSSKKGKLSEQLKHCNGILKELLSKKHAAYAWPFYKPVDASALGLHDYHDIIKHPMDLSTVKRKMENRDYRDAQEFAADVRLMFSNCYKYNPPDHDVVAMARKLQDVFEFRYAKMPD
BRD3(1,2), sequence (Q15059 24-416 limits assumed): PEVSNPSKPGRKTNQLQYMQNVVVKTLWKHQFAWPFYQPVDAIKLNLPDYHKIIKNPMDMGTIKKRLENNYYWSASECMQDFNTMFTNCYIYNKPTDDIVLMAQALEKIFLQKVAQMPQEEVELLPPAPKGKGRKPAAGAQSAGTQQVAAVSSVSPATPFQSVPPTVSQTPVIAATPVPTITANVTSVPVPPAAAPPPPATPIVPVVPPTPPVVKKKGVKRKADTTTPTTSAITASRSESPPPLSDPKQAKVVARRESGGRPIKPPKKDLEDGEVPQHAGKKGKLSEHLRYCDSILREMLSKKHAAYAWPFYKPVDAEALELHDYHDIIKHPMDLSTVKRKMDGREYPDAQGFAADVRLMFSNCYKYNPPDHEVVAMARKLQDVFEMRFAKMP
SMARCA2, sequence (P51531 1-1572 isoform P51531-2): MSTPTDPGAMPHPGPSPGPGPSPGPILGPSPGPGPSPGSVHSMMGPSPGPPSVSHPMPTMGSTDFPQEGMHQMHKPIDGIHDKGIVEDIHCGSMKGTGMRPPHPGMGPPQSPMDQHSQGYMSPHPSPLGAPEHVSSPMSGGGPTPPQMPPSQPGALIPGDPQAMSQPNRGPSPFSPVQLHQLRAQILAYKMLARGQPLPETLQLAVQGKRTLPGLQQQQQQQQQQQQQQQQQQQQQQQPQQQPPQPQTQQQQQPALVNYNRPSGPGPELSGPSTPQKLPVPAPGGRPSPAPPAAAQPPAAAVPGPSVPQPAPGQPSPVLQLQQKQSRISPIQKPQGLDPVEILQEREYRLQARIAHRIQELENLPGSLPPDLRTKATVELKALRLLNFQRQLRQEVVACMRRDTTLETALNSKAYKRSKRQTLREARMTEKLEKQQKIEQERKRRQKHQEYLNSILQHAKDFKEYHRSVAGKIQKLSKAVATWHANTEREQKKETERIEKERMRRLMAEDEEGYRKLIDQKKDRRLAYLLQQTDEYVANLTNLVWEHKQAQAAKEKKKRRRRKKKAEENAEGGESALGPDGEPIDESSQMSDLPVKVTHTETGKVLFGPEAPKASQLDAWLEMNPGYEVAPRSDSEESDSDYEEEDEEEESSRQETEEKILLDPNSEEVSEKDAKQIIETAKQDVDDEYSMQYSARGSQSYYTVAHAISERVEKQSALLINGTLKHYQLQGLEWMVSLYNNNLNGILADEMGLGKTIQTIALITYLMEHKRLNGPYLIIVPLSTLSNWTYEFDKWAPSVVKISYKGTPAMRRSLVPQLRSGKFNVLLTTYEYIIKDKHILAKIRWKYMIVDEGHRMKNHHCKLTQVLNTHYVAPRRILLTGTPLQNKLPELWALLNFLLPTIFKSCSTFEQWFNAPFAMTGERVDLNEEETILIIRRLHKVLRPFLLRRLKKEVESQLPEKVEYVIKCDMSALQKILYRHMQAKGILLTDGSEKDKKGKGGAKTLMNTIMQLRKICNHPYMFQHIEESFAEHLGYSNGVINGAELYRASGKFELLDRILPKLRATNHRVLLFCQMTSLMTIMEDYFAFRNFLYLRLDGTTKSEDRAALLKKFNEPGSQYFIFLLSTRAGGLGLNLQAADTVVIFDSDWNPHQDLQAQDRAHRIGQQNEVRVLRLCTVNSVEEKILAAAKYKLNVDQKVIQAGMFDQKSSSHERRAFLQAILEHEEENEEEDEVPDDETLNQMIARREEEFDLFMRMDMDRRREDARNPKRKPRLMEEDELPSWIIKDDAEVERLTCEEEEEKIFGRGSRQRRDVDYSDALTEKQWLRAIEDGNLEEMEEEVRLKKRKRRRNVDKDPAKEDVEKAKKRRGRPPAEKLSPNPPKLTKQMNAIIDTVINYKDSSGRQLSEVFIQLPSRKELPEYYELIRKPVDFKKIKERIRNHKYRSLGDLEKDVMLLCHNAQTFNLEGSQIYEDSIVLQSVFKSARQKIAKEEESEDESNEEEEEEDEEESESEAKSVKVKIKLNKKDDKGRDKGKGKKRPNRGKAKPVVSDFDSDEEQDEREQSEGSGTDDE
PBRM1(5), sequence (Q86U86 653-763 limits assumed): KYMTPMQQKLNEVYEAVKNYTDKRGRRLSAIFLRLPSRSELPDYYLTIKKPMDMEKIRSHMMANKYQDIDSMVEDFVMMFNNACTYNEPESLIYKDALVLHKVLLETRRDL
WDR9(2), sequence (Q9NSI6 1313-1418 limits assumed): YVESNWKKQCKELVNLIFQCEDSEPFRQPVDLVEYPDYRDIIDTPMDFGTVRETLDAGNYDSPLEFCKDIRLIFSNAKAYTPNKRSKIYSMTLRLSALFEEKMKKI
BRD2(1), sequence (P25440 74-180 limits assumed): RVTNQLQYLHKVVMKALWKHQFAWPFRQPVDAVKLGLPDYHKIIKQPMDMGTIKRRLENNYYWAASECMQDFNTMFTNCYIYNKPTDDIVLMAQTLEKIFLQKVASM
BRD2(2), sequence (P25440 344-453 limits assumed): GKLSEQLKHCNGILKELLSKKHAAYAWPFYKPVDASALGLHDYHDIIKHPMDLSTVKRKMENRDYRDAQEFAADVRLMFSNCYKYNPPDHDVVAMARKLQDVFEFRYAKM
BRD3(1), sequence (Q15059 34-140 limits assumed): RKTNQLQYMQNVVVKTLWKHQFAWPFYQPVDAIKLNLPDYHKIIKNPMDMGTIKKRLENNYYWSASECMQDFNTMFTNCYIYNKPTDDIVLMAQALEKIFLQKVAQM
PBRM1(2), sequence (Q86U86 177-287 limits assumed): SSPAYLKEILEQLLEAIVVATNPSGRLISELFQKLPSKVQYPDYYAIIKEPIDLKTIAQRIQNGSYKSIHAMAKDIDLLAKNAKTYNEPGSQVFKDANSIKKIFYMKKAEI

`COc1cc(C#N)ccc1S(=O)(=O)Nc1ccc2c(c1)cc(C)c(=O)n2C` [NI 57] showed a Kd ([1]; ATAD2B) of over 50000 nM, a Kd ([2]; BAZ2A) of over 50 µM and a Kd ([3]; BRD2(1)) of 5.9 µM. The Kd ([4]; BRD2(1,2)) was 12 µM, the Kd ([5]; BRD2(2)) was over 50 µM and the Kd ([6]; BRD3(1)) was 7200 nM. For the same molecule, the Kd ([7]; BRD3(1,2)) was 12000 nM, the Kd ([8]; BRD4(1,2)) was 15 µM and the Kd ([9]; BRD4(2)) was over 50 µM. For the same molecule, the Kd ([10]; CECR2) was 12000 nM, the Kd ([11]; EP300) was 15000 nM and the Kd ([12]; FALZ) was 2300 nM. It also gave a Kd ([13]; GCN5L2) of 4100 nM, a Kd ([14]; PBRM1(2)) of over 50000 nM and a Kd [15] of 11 µM. For the same molecule, the Kd ([16]; PCAF) was 4200 nM, the Kd ([17]; SMARCA2) was over 50000 nM and the Kd ([18]; TAF1(2)) was 4.9 µM. For the same molecule, the Kd ([19]; TRIM33(PHD,Bromo.)) was over 50000 nM and the Kd ([20]; WDR9(2)) was over 50000 nM.
With `COc1cc2c(cc1NS(=O)(=O)c1ccc(Br)cc1C)n(C)c(=O)n2C` [OF-1] the Kd ([1]; ATAD2B) was 29000 nM, the Kd ([2]; BAZ2A) was 13 µM and the Kd ([3]; BRD2(1)) was 7.4 µM. For the same molecule, the Kd ([4]; BRD2(1,2)) was 5.6 µM, the Kd ([5]; BRD2(2)) was 10 µM and the Kd ([6]; BRD3(1)) was 5500 nM. It also gave a Kd ([7]; BRD3(1,2)) of 4900 nM, a Kd ([10]; CECR2) of over 50000 nM and a Kd [10, 21] of over 30000 nM. The Kd ([11]; EP300) was 47000 nM, the Kd ([12]; FALZ) was 1600 nM and the Kd ([13]; GCN5L2) was 6900 nM. It also gave a Kd ([14]; PBRM1(2)) of over 50000 nM, a Kd [14, 21] of over 30000 nM and a Kd [15] of 4.5 µM. For the same molecule, the Kd ([16]; PCAF) was 12000 nM, the Kd ([17]; SMARCA2) was over 50000 nM and the Kd [17, 21] was over 30000 nM. It also gave a Kd ([18]; TAF1(2)) of 4.7 µM, a Kd ([19]; TRIM33(PHD,Bromo.)) of 40000 nM and a Kd ([20]; WDR9(2)) of over 50000 nM. For the same molecule, the Kd [20, 21] was over 30000 nM.
`O=C(C=CN1CC2CC1CN2c1ccccn1)c1ccccc1O` (stereo not shown) [PFI-3] was tested, and the Kd [1, 22] was over 30000 nM, the Kd ([1]; KD, ATAD2B) was over 100000 nM and the Kd [2] was over 100 µM. It also gave a Kd [6, 22] of over 30000 nM, a Kd ([6]; KD, BRD3(1)) of over 100000 nM and a Kd [7, 22] of over 30000 nM. It also gave a Kd ([7]; KD, BRD3(1,2)) of over 100000 nM, a Kd [10, 22] of over 30000 nM and a Kd ([10]; KD, CECR2) of over 100000 nM. It also gave a Kd [11, 22] of over 30000 nM, a Kd ([11]; KD, EP300) of over 100000 nM and a Kd [12, 22] of over 30000 nM. The Kd ([12]; KD, FALZ) was over 100000 nM, the Kd [13, 22] was over 30000 nM and the Kd ([13]; KD, GCN5L2) was over 100000 nM. It also gave a Kd [16, 22] of over 30000 nM, a Kd ([16]; KD, PCAF) of over 100000 nM and a Kd [19, 22] of over 30000 nM. The Kd ([19]; KD, TRIM33(PHD,Bromo.)) was over 100000 nM, the Kd [20, 22] was over 30000 nM and the Kd ([20]; KD, WDR9(2)) was over 100000 nM.
In the case of `COc1ccc(CCc2nc3cc(-c4c(C)noc4C)ccc3n2C[C@H](C)N2CCOCC2)cc1Cl` [SGC-CBP30], the Kd [1, 22] is reported as over 30000 nM, the Kd ([1]; KD, BROMOscan, ATAD2B) is reported as over 100000 nM and the Kd [2] is reported as 69 µM. For the same molecule, the Kd [3] was 0.62 µM, the Kd [4] was 0.65 µM and the Kd [5] was 2.4 µM. It also gave a Kd ([6]; KD, BROMOscan, BRD3(1)) of 740 nM, a Kd ([7]; KD, BROMOscan, BRD3(1,2)) of 1100 nM and a Kd [8] of 3.4 µM. For the same molecule, the Kd [9] was 6.2 µM, the Kd ([10]; KD, BROMOscan, CECR2) was 7900 nM and the Kd ([12]; KD, BROMOscan, FALZ) was 81000 nM. It also gave a Kd [13, 22] of over 30000 nM, a Kd ([13]; KD, BROMOscan, GCN5L2) of over 100000 nM and a Kd [14, 22] of over 30000 nM. The Kd ([14]; KD, BROMOscan, PBRM1(2)) was over 100000 nM, the Kd ([15]; KD, BROMOscan) was 49.7 µM and the Kd [16, 22] was over 30000 nM. The Kd ([16]; KD, BROMOscan, PCAF) was over 100000 nM, the Kd [17, 22] was over 30000 nM and the Kd ([17]; KD, BROMOscan, SMARCA2) was over 100000 nM. It also gave a Kd [18] of 3.1 µM, a Kd [19, 22] of over 30000 nM and a Kd ([19]; KD, BROMOscan, TRIM33(PHD,Bromo.)) of over 100000 nM. The Kd ([20]; KD, BROMOscan, WDR9(2)) was 12000 nM.
With `O=C(O)c1ccccc1O` [Salicylic Acid] the Kd ([1]; KD, ATAD2B) was over 1.4e+07 nM, the Kd [2] was over 14000 µM and the Kd [3] was over 14000 µM. It also gave a Kd [4] of 7300 µM, a Kd [5] of over 14000 µM and a Kd [8] of over 14000 µM. The Kd [9] was over 14000 µM, the Kd ([10]; KD, CECR2) was over 1.4e+07 nM and the Kd ([11]; KD, EP300) was over 1.4e+07 nM. For the same molecule, the Kd ([12]; KD, FALZ) was over 1.4e+07 nM, the Kd ([13]; KD, GCN5L2) was over 1.4e+07 nM and the Kd ([14]; KD, PBRM1(2)) was 1e+06 nM. The Kd ([15]; KD) was 160 µM, the Kd ([16]; KD, PCAF) was over 1.4e+07 nM and the Kd ([17]; KD, SMARCA2) was 250000 nM. The Kd [18] was over 14000 µM, the Kd ([19]; KD, TRIM33(PHD,Bromo.)) was over 1.4e+07 nM and the Kd ([20]; KD, WDR9(2)) was over 1.4e+07 nM.
